Test results as given in paper PMC3920258, “Experimental Basis for the High Oral Toxicity of Dinophysistoxin 1: A Comparative Study of DSP” (Toxins, 2014).
Like-named read-outs stand apart in the source and are kept apart here.

Assays:
[1] = test system: differentiated Caco-2 monolayers; test: Annexin V-FITC apoptosis detection, confocal imaging; format: cell-based, human; settings: 24 h; for annexin V-FITC fluorescence (apoptosis / cell death), positive controls: 1 μM STP, 100 mM NaBT, 0.005% Triton X-100; for annexin V-FITC fluorescence (apoptosis): 100 nM toxin
Excerpt: Cell membrane integrity assay: Some fluorescent methods allow a non-destructive evaluation of apoptosis by detecting changes in the structure of cell membranes. Annexin V has a high affinity for phosphatidylserine (PS), a phospholipid component located on the inner surface of the lipid bilayer of the cellular plasma membrane. During early apoptosis processes, this PS migrates to the outer portion, becomes exposed on the surface of the cell and can be detected by binding to annexin V labeled with a fluorescent dye. The annexin V assay was carried out in differentiated Caco-2 monolayers that were treated for 24 h with 100 nM of OA, DTX1, DTX2 or vehicle. Incubation with 0.005% Triton X-100 was used as a positive control of cell death and 1 μM staurosporine (STP) and 100 mM sodium butyrate (NaBT) as inductors of cell apoptosis.
To visualize apoptosis by confocal microscopy in the toxin-treated Caco-2 monolayers, an apoptosis detection kit containing annexin V conjugated with FITC from Immunostep (Salamanca, Spain) was used.
Caco-2 cells were seeded on glass coverslips at an initial concentration of 65 × 10^3 cells/mL and cultured for 21 days until differentiation with medium renewal each 2–3 days. On the 21st day, the cell medium was removed, and the monolayers were treated for 24 h with toxins: OA, DTX1, DTX2, vehicle and positive controls of apoptosis and cellular death (staurosporine (STP), sodium butyrate (NaBT) and Triton-X 100). Immediately after the 24 h of incubation, the medium was removed, and the cells were rinsed 3 times with PBS just before the addition of annexin V-FITC in a proportion of 1:100 diluted in the provided binding buffer. After 15 min of incubation in the dark at room temperature, the cells were rinsed again 3 times with PBS and fixed using paraformaldehyde 2% for 15 min at 4 °C. Finally, another 3 washes with PBS were required prior to mounting the coverslips over microscope glass slides with 10 μL of PBS/Glycerol (1:1) and sealing the edges with nail varnish. Confocal imaging was then carried out with a 40× oil immersion objective of a Nikon Eclipse TE2000-E inverted microscope attached to the C1 laser confocal system and EZ-C1 V.2.20 software (Nikon Instruments Europe B.V., Amstelveen, Netherlands). An argon laser was used to excite the annexin V-FITC conjugated protein (λ excitation = […], λ emission = […]).

occludin in Caco-2 cells = test: Confocal microscopy imaging of occludin; format: cell-based, human; settings: 24 h; for occludin distribution, positive controls: 0.005% Triton X-100, 100 mM NaBT, 1 μM STP; for occludin distribution / location: 100 nM toxin
Description: Tight-junction strands are composed of membrane integral proteins, occludin being the best-studied member. We evaluate the integrity of such tight-junctions in Caco-2 cells treated with 100 nM OA, DTX1 and DTX2 for 24 h by labeling occludin. […] (Figure 5C).
Alexa Fluor® 488-labeled anti-occludin mouse monoclonal antibody from Invitrogen (Camarillo, CA, USA) was used for visualizing occludin, as previously described.
Briefly, differentiated Caco-2 monolayers were treated with OA, DTX1, DTX2, vehicle and positive controls of apoptosis and cellular death: staurosporine (STP), sodium butyrate (NaBT) and Triton-X 100. Immediately after treatments, the cells were fixed and incubated with the anti-occludin antibody. Each experimental condition was performed in duplicate. Confocal imaging was then carried out with a 40× oil immersion objective of a Nikon Eclipse TE2000-E inverted microscope attached to the C1 laser confocal system and EZ-C1 V.2.20 software (Nikon Instruments Europe B.V., Amstelveen, Netherlands). An Argon laser was used to excite the Alexa Fluor 488 conjugated antibody.

mice [2] = settings: oral administration to mice; cited from earlier work
Caco-2 cells [3] = test system: Caco-2 cells; set-up: method as in PMID 10806372; settings: 1–2 μM; cited from earlier work
Caco-2 cells [4] = test system: Caco-2 cells; set-up: method as in PMID 21093526; settings: after 24 h; cited from earlier work
mice [5] = settings: cited from earlier work; for minimum lethal dose: mice, i.p.
[6] = test system: differentiated Caco-2 monolayers; test: Trans-epithelial electrical resistance (TEER) measurement; format: cell-based, human; settings: for change in TEER values: 10, 50 and 100 nM, 3, 6, 12 and 24 h
Description: We assessed tight junction formation stability through measurements of trans-epithelial electrical resistance (TEER). […] We studied the changes that OA, DTX1 and DTX2 induced in the TEER of the Caco-2 monolayer as a function of time. Differentiated Caco-2 monolayers were incubated with 10, 50 and 100 nM OA, DTX1 and DTX2. TEER was measured immediately before the toxins addition and after 3, 6, 12 and 24 h of incubation with them.
Trans epithelial electric resistance (TEER) was measured across differentiated Caco-2 monolayers, as previously described. The measurements were performed before the treatment with OA, DTX1 and DTX2 (controls), and after each of the incubation times established: 3, 6, 12 and 24 h. Only inserts with TEER higher than 300 Ωcm^2 before the addition of the toxin were used for further testing.

[7] = test system: differentiated Caco-2 monolayers; test: Caco-2 permeability assay with microsphere-based immunoassay quantification; format: in vitro ADME, human; settings: for transport across the Caco-2 monolayer (apical to basolateral): 50 and 100 nM, 3, 6, 12 and 24 h
Description: With the aim of evaluating the transport of OA, DTX1 and DTX2 through the cell monolayer, we performed the permeability assays as described in Section 4.7. Caco-2 cell monolayers were incubated with OA, DTX1 and DTX2 for 3, 6, 12 and 24 h. […] According to the results, almost all the OA and DTX2 remain in the apical side (Figure 6 A,D and C,F). […] Likewise, in the absence of a cell monolayer (shown as no cells in Figure 6), all the toxins easily flow over inserts.
The permeability assay was carried out as previously described. During the assays, cell monolayer integrity was evaluated by measuring TEER at the start and end of the experiment. Once the incubation with the toxins (OA, DTX1 and DTX2) finished (after 3, 6, 12 or 24 h), the medium was collected from both the insert (donor compartment/apical side of the monolayer) and the well (receiver compartment/basolateral side of the monolayer) for toxin quantification purposes. Previously, we confirmed that the toxins easily flow over the naked inserts.
OA, DTX1 and DTX2 samples taken from the inserts/donor compartments and wells/receptor compartments where quantified, as previously described by Fraga et al.. In order to consider the cross-reactivity of the analyzed derivatives of the okadaic acid, DTX-1 and DTX-2, calibration curves were prepared using calibration solutions with CRMs of DTX-1 and DTX-2. Therefore, the quantification of DTX-1 and DTX-2 samples collected from permeability assays were quantified against their respective calibration curves.

[8] = test system: differentiated Caco-2 cells; test: AlamarBlue metabolic activity (viability) assay; format: cell-based, human; settings: 1-1000 nM toxin, 6-72 h; highest 1000 nM for 72 h
Description: Metabolic activity assay: Cytotoxic effects of OA, DTX1 and DTX2 (1, 10, 20, 40, 100, 200, 500 and 1000 nM) in differentiated Caco-2 cells have been evaluated in a time-dependent manner by the AlamarBlue metabolic activity assay. Incubation with 0.01% Triton X-100 has been used as a positive control of death. Data are shown in Figure 2 as the percent of fluorescence vs. control.
The viability of the Caco-2 cells was measured by Alamar Blue assay, as previously described. Briefly, the Caco-2 cells were seeded onto 96-well plates at an initial concentration of 25,000 cells/mL and cultured until differentiation (21 days) with medium renewal every 2–3 days. Subsequently, cells were treated with increasing concentrations of OA, DTX1, DTX2 and Triton X-100 in the presence of AlamarBlue; then, fluorescence was measured at 6, 8, 10, 12, 24, 48 and 72 hours of incubation using a FL600 Microplate Fluorescence Reader from BioTek (Winooski, VT, USA) at an excitation wavelength of 530 nm and an emission wavelength of 590 nm. Control cells were considered as having 100% viability, and the results are expressed as the percentage of the fluorescence of treated cells versus the fluorescence of control ones.

Caco-2 monolayers = settings: cited from earlier work
mice [9] = settings: cited from earlier work; for lethal oral dose: mice; for lethal oral dose / mice dead: oral
PP2A = settings: cited from earlier work; for inhibition equivalency factor (IEF): PP2A
PP1 = settings: cited from earlier work
[10] = EFSA, based on mice i.p. toxicity, reference OA

For `CN[C@@H]1C[C@H]2O[C@@](C)([C@@H]1OC)n1c3ccccc3c3c4c(c5c6ccccc6n2c5c31)C(=O)NC4` [STP, staurosporine], the “annexin V-FITC fluorescence (apoptosis / cell death), positive controls” value [1] was “evident FITC green fluorescence zones” and the “occludin distribution, positive controls” value (occludin in Caco-2 cells) was “redistribution of occludin with adjacent diffuse intracellular staining and a granular appearance”.
For `C=C1[C@@H](O)[C@@H]2O[C@]3(CC[C@H](/C=C/[C@@H](C)[C@@H]4CC(C)=C[C@@]5(O[C@H](C[C@@](C)(O)C(=O)O)CC[C@H]5O)O4)O3)CC[C@H]2O[C@@H]1[C@@H](O)C[C@H](C)[C@H]1O[C@@]2(CCCCO2)CC[C@H]1C` [OA, okadaic acid], the “annexin V-FITC fluorescence (apoptosis)” value [1] is given as “Lack of fluorescence”, the “time to repair of damage to the intestinal ultrastructure” value (mice [2]) is given as no more than 24 h and the “occludin distribution / location” value (occludin in Caco-2 cells) is given as “no modifications on the distribution of occludin”. The “cell membrane damage and LDH release” value (Caco-2 cells [3]) was “no cell membrane damage nor LHD release”, the “applied dose found in the basolateral side” value (Caco-2 cells [4]) was 2% and the “applied dose trapped into Caco-2 cells” value (Caco-2 cells [4]) was 2%–3. The “toxicity equivalent factor (TEF)” value (mice [5]; [10]) was 1, the “change in TEER values” [6] was “did not induce any change” and the “transport across the Caco-2 monolayer (apical to basolateral)” value [7] was “unable to cross the Caco-2 monolayer”. For the same compound, the “fluorescence intensity (percent of viability vs. control)” value [8] was “did not show any decrease in fluorescence intensity”, the TEER changes (Caco-2 monolayers; 1 to 2 μM, 30 to 90 min) was “significant TEER reduction” and the “concentration that decreased the TEER of Caco-2 monolayers” value (Caco-2 monolayers) was no less than 600 nM. For the same compound, the TEER changes (Caco-2 monolayers; differentiated Caco-2 monolayers, up to 200 nM for 24h) was “absence of TEER changes”, the lethal oral dose (mice [9]; ref 54) was 400 μg/kg b.w and the lethal oral dose (mice [9]; ref 55) was 880 μg/kg b.w. For the same compound, the mice dead (mice [9]; 1000 μg/kg b.w) was 0/5 and the mice dead (mice [9]; 2000 μg/kg b.w.) was 4/5.
For `C=C1C(O)C2OC3(CCC(C=CC(C)C4CC(C)=CC5(OC(CC(C)(O)C(=O)O)CCC5O)O4)O3)CCC2OC1C(O)CC(C)C1CCCC2(OCCCC2C)O1` (stereo not shown) [DTX2, dinophysistoxin-2], the “annexin V-FITC fluorescence (apoptosis)” value [1] is listed as “Lack of fluorescence”, the “occludin distribution / location” value (occludin in Caco-2 cells) is listed as “no modifications on the distribution of occludin” and the “toxicity relative to OA” value (PP2A) is listed as “equal toxicity”. The “toxicity equivalent factor (TEF)” value (mice [5]; [10]) was 0.6, the “toxicity equivalent factor (TEF)” value (mice [5]; acute intraperitoneal toxicity in mice) was 0.6 and the minimum lethal dose (mice [5]) was 350 μg/kg b.w. For the same compound, the “change in TEER values” [6] was “did not induce any change”, the “transport across the Caco-2 monolayer (apical to basolateral)” value [7] was “unable to cross the Caco-2 monolayer” and the “fluorescence intensity (percent of viability vs. control)” value [8] was “did not show any decrease in fluorescence intensity”.
With Triton X-100 the “annexin V-FITC fluorescence (apoptosis / cell death), positive controls” value [1] was “heavily damaged cell monolayer with noticeable loss of substrate adhesion and fluorescent green dots” and the “occludin distribution, positive controls” value (occludin in Caco-2 cells) was “redistribution of occludin with adjacent diffuse intracellular staining and a granular appearance”.
In the case of `C=C1[C@@H](O)[C@@H]2O[C@]3(CC[C@H](/C=C/[C@@H](C)[C@@H]4CC(C)=C[C@@]5(O[C@H](C[C@@](C)(O)C(=O)O)CC[C@H]5O)O4)O3)CC[C@H]2O[C@@H]1[C@@H](O)C[C@H](C)[C@H]1O[C@@]2(CC[C@H]1C)OCCC[C@H]2C` [DTX1, dinophysistoxin-1], the “annexin V-FITC fluorescence (apoptosis)” value [1] is listed as “Lack of fluorescence”, the “occludin distribution / location” value (occludin in Caco-2 cells) is listed as “fragmented and less uniform staining of occludin” and the “inhibition equivalency factor (IEF)” value (PP2A; higher IC50 than OA) is listed as 0.6–0.9. The “inhibition equivalency factor (IEF)” value (PP2A; lower IC50 than OA) was 1.6–2.4, the “dissociation constant, fold lower compared to OA” value (PP2A; catalytic subunit PP2A) was 1.6 fold and the “toxicity equivalent factor (TEF)” value (mice [5]; [10]) was 1. For the same compound, the minimum lethal dose (mice [5]) was 160 µg/kg, the “change in TEER value” ([6]; 50 nM, 24 h) was “significantly decreased” and the “change in TEER value” ([6]; 100 nM, 12 and 24 h) was “decrease was much more noticeable”. The “TEER values lowered to” value ([6]; 100 nM, 12 h) was 50%, the “TEER values lowered to” value ([6]; 100 nM, 24 h) was 70% and the “concentration disrupting the integrity of Caco-2 monolayers” value ([6]; as stated in abstract) was “above 50 nM”. For the same compound, the “concentration disrupting the monolayer integrity” value ([6]; for 12 h and above) was greater than 100 nM, the “amount of toxin in the basolateral side” value ([7]; 100 nM, 24 h) was “increase in the amount of toxin in the basolateral side” and the “initial amount recovered from the basolateral side” value ([7]; 100 nM, 24 h) was roughly 50%. For the same compound, the “concentration at which toxin significantly crosses the intestinal epithelium” value ([7]; as stated in abstract) was “above 100 nM”, the “fluorescence intensity (percent of viability vs. control)” value [8] was “did not show any decrease in fluorescence intensity” and the “inhibition equivalency factor (IEF), IC50 OA / IC50 analogue” value (PP1) was 0.4–0.9. For the same compound, the “oral toxicity compared with i.p. injection” value (mice [9]) was “only slightly less toxic when administered orally than when given by i.p. injection” and the lethal oral dose (mice [9]; ref 58) was 300 μg/kg b.w.
In the case of `CCCC(=O)[O-].[Na+]` [NaBT, sodium butyrate], the “annexin V-FITC fluorescence (apoptosis / cell death), positive controls” value [1] is reported as “evident FITC green fluorescence zones” and the “occludin distribution, positive controls” value (occludin in Caco-2 cells) is reported as “redistribution of occludin with adjacent diffuse intracellular staining and a granular appearance”.
